≈ marks a conversion by molar mass, not a printed value. Like-named read-outs stand apart in the source and are kept apart here.
Experiments:
Format in all cases: cell-based
[1] = system: Staphylococcus aureus ATCC29213; experiment: MIC, microbroth dilution
[2] = system: Staphylococcus aureus ATCC29213 rpoB^D417Y; experiment: microbe, parasite or virus in culture
Method: (§1) Representative compounds were assayed for antimicrobial activity as follows: Minimum Inhibitory Concentrations (“MICs”) were determined by the microbroth dilution method as per NCCLS guidelines (National Committee for Clinical Laboratory Standards. 2000. Methods for dilution antimicrobial susceptibility tests for bacteria that grow aerobically, 5th ed. M7-A5. National Committee for Clinical Laboratory Standards, Wayne, Pa.), except that all growth incubations were conducted at 37° C. Bacterial cultures were tested in the following bacteriological media: S. aureus, S. epidermidis, and E. coli in Cation-Adjusted Mueller-Hinton Broth, S. pneumoniae in THY Broth supplemented with 1 mg/mL catalase under 5% CO2 atmosphere, S. pyogenes in THY Broth, E. faecalis in BHI Broth, H. influenzae in BHI Broth supplemented with 0.75 μL of 1 mg/mL NAD and 150 μL of 1 mg/ml hematin per 5 mL, and M. smegmatis in Middlebrook Broth plus ADC Enrichment.
(§2) S. aureus ATCC 29213 RpoB^H418Y is a rifampin-resistant strain with a mutation in the RpoB gene of RNA polymerase. […] S. aureus EN1252a gyrA^S84L grlA^S80F is a quinolone-resistant strain due to double gene mutations of DNA gyrase and topoisomerase IV.

[3] = system: Staphylococcus aureus ATCC29213 rpoB^H418Y; experiment: microbe, parasite or virus in culture
Method: as §1, §2

[4] = system: Staphylococcus aureus EN1252a gyrA^S84L grlA^S80F; experiment: microbe, parasite or virus in culture; details: read-out: Antimicrobial activity (MIC)
Method: as §1, §2

[5] = system: Staphylococcus epidermidis ATCC12228; experiment: MIC, microbroth dilution; details: Staphylococcus epidermidis ATCC12228, rifS; read-out: Antimicrobial activity (MIC)
[6] = system: Streptococcus pneumoniae ATCC6303; experiment: MIC, microbroth dilution; details: Streptococcus pneumoniae ATCC6303, rifS; read-out: Antimicrobial activity (MIC)
[7] = system: Streptococcus pyogenes ATCC19615; experiment: MIC, microbroth dilution; details: Streptococcus pyogenes ATCC19615, rifS; read-out: Antimicrobial activity (MIC)
[8] = system: Enterococcus faecalis ATCC29212; experiment: MIC, microbroth dilution; details: Enterococcus faecalis ATCC29212, rifS; read-out: Antimicrobial activity (MIC)
[9] = system: Haemophilus influenzae ATCC10211; experiment: MIC, microbroth dilution; details: Haemophilus influenzae ATCC10211, rifS; read-out: Antimicrobial activity (MIC)
[10] = system: Escherichia coli ATCC25922; experiment: MIC, microbroth dilution; details: Escherichia coli ATCC25922, rifS; read-out: Antimicrobial activity (MIC)
[11] = system: Mycobacterium smegmatis ATCC700084; experiment: MIC, microbroth dilution; details: Mycolicibacterium smegmatis; Mycobacterium smegmatis ATCC700084, rifS; read-out: Antimicrobial activity (MIC)
[12] = MIC, microbroth dilution, panel of strains; details: across five rifampin-susceptible Gram-positive strains
Method: as §1
(§3) S. aureus […], S. epidermidis ATCC 12228, S. pneumoniae ATCC6303, S. pyogenes ATCC 19615 and E. faecalis ATCC 29212 are rifampin-susceptible Gram-positive strains. […] The compounds of the current invention show further improved activity against these strains with MICs as low as 0.0002 μg/ml. H. influenzae ATCC 10211 and E. coli ATCC 25922 are Gram-negative bacteria. […]

[13] = system: Gram-negative bacteria (H. influenzae ATCC 10211 and E. coli ATCC 25922); experiment: MIC, microbroth dilution, panel of strains; details: Haemophilus influenzae; across H. influenzae ATCC 10211 and E. coli ATCC 25922
Method: as §1, §3

[14] = Staphylococcus aureus ATCC29213, rifS, read-out: Antimicrobial activity (MIC)
[15] = Staphylococcus aureus ATCC29213 rpoB^D417Y, rifR, read-out: Antimicrobial activity (MIC)
[16] = Staphylococcus aureus ATCC29213 rpoB^H418Y, rifR, read-out: Antimicrobial activity (MIC)
[17] = Staphylococcus aureus EN1252a gyrA^S84L grlA^S80F, cipR
[18] = Staphylococcus aureus, ATCC29213
[19] = Staphylococcus aureus, ATCC29213, read-out: Antimicrobial activity (MIC)

SMILES	MIC [1, 14] [µg/mL]	MIC [2, 15] [µg/mL]	MIC [3, 16] [µg/mL]	MIC [4, 17] [µg/mL]	MIC [5] [µg/mL]	MIC [6] [µg/mL]	MIC [7] [µg/mL]	MIC [8] [µg/mL]	MIC [9] [µg/mL]	MIC [10] [µg/mL]	MIC [11] [µg/mL]	MIC ([1]; Staphylococcus aureus, ATCC29213, S. aureus ATCC 29213 wild type, read-out: MIC) [µg/mL]	MIC [2, 18] [µg/mL]	MIC [2, 19] [µg/mL]	MIC [3, 18] [µg/mL]	MIC [3, 19] [µg/mL]	MIC ([4]; Staphylococcus aureus) [µg/mL]	MIC [12] [µg/mL]	MIC [13] [µg/mL]
C=CCO/N=C1/c2c3c(C)c(O)c4c2C(=O)C(N2CCOCC2)=C(NC(=O)/C(C)=C\C=C\[C@H](C)[C@H](O)[C@@H](C)[C@@H](O)[C@@H](C)[C@H](OC(C)=O)[C@H](C)[C@@H](OC)/C=C/O[C@@]1(C)O3)C4=O [Example 36, 11-Deoxy-3-(morpholin-4-yl)-11-allyloxyiminorifamycin S]	0.004 to 0.5 (≈ 0.00478 to 0.598 µM)	0.25 to 32 (≈ 0.299 to 38.3 µM)	0.125 to 16 (≈ 0.15 to 19.1 µM)	0.004 to 0.5 (≈ 0.00478 to 0.598 µM)	0.0005 to 0.063 (≈ 0.000598 to 0.0754 µM)	0.0002 to 0.125 (≈ 0.000239 to 0.15 µM)	0.0005 to 0.063 (≈ 0.000598 to 0.0754 µM)	2 to 32 (≈ 2.39 to 38.3 µM)	0.03 to 2 (≈ 0.0359 to 2.39 µM)	0.125 to 8 (≈ 0.15 to 9.57 µM)	0.5 to 64 (≈ 0.598 to 76.6 µM)	–	–	–	–	–	–	–	–
CO[C@H]1/C=C/O[C@@]2(C)Oc3c(C)c(O)c4c(O)c(c(/C=N/N5CCN(C)CC5)c(O)c4c3/C2=N/O)NC(=O)/C(C)=C\C=C\[C@H](C)[C@H](O)[C@@H](C)[C@@H](O)[C@@H](C)[C@H](OC(C)=O)[C@@H]1C [Example 37, 11-Deoxy-11-hydroxyimino-3-(4-methylpiperazin-1-yl)aminomethenylrifamycin SV]	0.004 to 0.5 (≈ 0.00477 to 0.597 µM)	0.25 to 32 (≈ 0.298 to 38.2 µM)	0.125 to 16 (≈ 0.149 to 19.1 µM)	0.004 to 0.5 (≈ 0.00477 to 0.597 µM)	0.0005 to 0.063 (≈ 0.000597 to 0.0752 µM)	0.0002 to 0.125 (≈ 0.000239 to 0.149 µM)	0.0005 to 0.063 (≈ 0.000597 to 0.0752 µM)	2 to 32 (≈ 2.39 to 38.2 µM)	0.03 to 2 (≈ 0.0358 to 2.39 µM)	0.125 to 8 (≈ 0.149 to 9.55 µM)	0.5 to 64 (≈ 0.597 to 76.4 µM)	–	–	–	–	–	–	–	–
CO[C@H]1/C=C/O[C@@]2(C)Oc3c(C)c(O)c4c(c3/C2=N/O)C(=O)C(/C=N/N2CCN(C)CC2)=C(NC(=O)/C(C)=C\C=C\[C@H](C)[C@H](O)[C@@H](C)[C@@H](O)[C@@H](C)[C@H](OC(C)=O)[C@@H]1C)C4=O [Example 38, 11-Deoxy-11-hydroxyimino-3-(4-methylpiperazin-1-yl)aminomethenylrifamycin S]	0.004 to 0.5 (≈ 0.00478 to 0.598 µM)	0.25 to 32 (≈ 0.299 to 38.3 µM)	0.125 to 16 (≈ 0.15 to 19.1 µM)	0.004 to 0.5 (≈ 0.00478 to 0.598 µM)	0.0005 to 0.063 (≈ 0.000598 to 0.0754 µM)	0.0002 to 0.125 (≈ 0.000239 to 0.15 µM)	0.0005 to 0.063 (≈ 0.000598 to 0.0754 µM)	2 to 32 (≈ 2.39 to 38.3 µM)	0.03 to 2 (≈ 0.0359 to 2.39 µM)	0.125 to 8 (≈ 0.15 to 9.57 µM)	0.5 to 64 (≈ 0.598 to 76.6 µM)	–	–	–	–	–	–	–	–
CO[C@H]1/C=C/O[C@@]2(C)Oc3c(C)c(O)c4c(O)c(c(/C=N/N5CCN(c6cc7c(cc6F)c(=O)c(C(=O)O)cn7C6CC6)CC5)c(O)c4c3/C2=N/O)NC(=O)/C(C)=C\C=C\[C@H](C)[C@H](O)[C@@H](C)[C@@H](O)[C@@H](C)[C@H](OC(C)=O)[C@@H]1C [Example 39, 3-[4-(3-Carboxy-1-cyclopropyl-6-fluoro-4-oxo-1,4-dihydroquinolin-7-yl)piperazin-1-yl-aminomethylenyl]-11-deoxy-11-hydroxyiminorifamycin SV]	0.004 to 0.5 (≈ 0.00374 to 0.468 µM)	0.25 to 32 (≈ 0.234 to 29.9 µM)	0.125 to 16 (≈ 0.117 to 15 µM)	0.004 to 0.5 (≈ 0.00374 to 0.468 µM)	0.0005 to 0.063 (≈ 0.000468 to 0.0589 µM)	0.0002 to 0.125 (≈ 0.000187 to 0.117 µM)	0.0005 to 0.063 (≈ 0.000468 to 0.0589 µM)	2 to 32 (≈ 1.87 to 29.9 µM)	0.03 to 2 (≈ 0.0281 to 1.87 µM)	0.125 to 8 (≈ 0.117 to 7.48 µM)	0.5 to 64 (≈ 0.468 to 59.9 µM)	–	–	–	–	–	–	–	–
CO[C@H]1/C=C/O[C@@]2(C)Oc3c(C)c(O)c4c(O)c(c(/C=N/N5CCN(C)CC5)c(O)c4c3C2=O)NC(=O)/C(C)=C\C=C\[C@H](C)[C@H](O)[C@@H](C)[C@@H](O)[C@@H](C)[C@H](OC(C)=O)[C@@H]1C [rifampin, reference compound]	0.008 (≈ 0.00972 µM)	–	–	–	0.03 (≈ 0.0365 µM)	0.061 (≈ 0.0741 µM)	0.013 (≈ 0.0158 µM)	1 (≈ 1.22 µM)	0.24 (≈ 0.292 µM)	16 (≈ 19.4 µM)	64 (≈ 77.8 µM)	0.008 (≈ 0.00972 µM)	> 64	> 64	8 (≈ 9.72 µM)	8 (≈ 9.72 µM)	0.004 (≈ 0.00486 µM)	0.013 to 1 (≈ 0.0158 to 1.22 µM)	0.24 to 16 (≈ 0.292 to 19.4 µM)
